According to US20210037829A1, “ANTIMICROBIAL COMPOSITIONS FOR SURGICAL APPLICATIONS” (TELEFLEX MEDICAL INCORPORATED, priority 2015, published 2021):
Values joined by “and” are separate entries in the source; they are usually repeats but may differ in a detail not shown here. Identical values can stand only once.

Columns and labels:
Assay in all cases: Time to Kill
Type in all cases: cell-based
Staphylococcus aureus = conditions: 128 ppm; for Exposure time to complete kill: S. aureus, challenge 10^4-10^5 CFU/mL; for Number of Microbial Colonies: Staphylococcus aureus, replicates 1-5
Protocol: (§1) Alexidine and Chlorhexidine, both at a concentration of 128 ppm were exposed to a Gram positive bacteria (Staphylococcus aureus), a Gram negative bacteria (Pseudomonas aeruginosa), and a fungus (Candida albicans). The challenge concentration for each organism was 10^4-10^5 CFU/mL, and the exposure time varied from 0.5-60 minutes. […] Complete kill of all three organisms was observed within 0.5-1 minute of Alexidine exposure.

Pseudomonas aeruginosa = conditions: 128 ppm; for Exposure time to complete kill: P. aeruginosa, challenge 10^4-10^5 CFU/mL; for Number of Microbial Colonies: Pseudomonas aeruginosa, replicates 1-5
Protocol: as §1

Candida albicans = conditions: 128 ppm; for Exposure time to complete kill: C. albicans, challenge 10^4-10^5 CFU/mL; for Number of Microbial Colonies: Candida albicans, replicates 1-5
Protocol: as §1

[1] = exposure 0.5 minutes, TNTC = too numerous to count
[2] = exposure 1 minute, TNTC = too numerous to count
[3] = exposure 5 minutes, TNTC = too numerous to count

SMILES	Exposure time to complete kill (Staphylococcus aureus) [min]	Number of Microbial Colonies (Staphylococcus aureus; [1])	Number of Microbial Colonies (Staphylococcus aureus; [2])	Number of Microbial Colonies (Staphylococcus aureus; [3])	Number of Microbial Colonies (Staphylococcus aureus; exposure 60 minutes)	Exposure time to complete kill (Pseudomonas aeruginosa) [min]	Number of Microbial Colonies (Pseudomonas aeruginosa; exposure 0.5 minutes)	Number of Microbial Colonies (Pseudomonas aeruginosa; exposure 1 minute)	Number of Microbial Colonies (Pseudomonas aeruginosa; exposure 5 minutes)	Number of Microbial Colonies (Pseudomonas aeruginosa; exposure 60 minutes)	Exposure time to complete kill (Candida albicans) [min]	Number of Microbial Colonies (Candida albicans; [1])	Number of Microbial Colonies (Candida albicans; [2])	Number of Microbial Colonies (Candida albicans; [3])	Number of Microbial Colonies (Candida albicans; exposure 60 minutes)
[H]/N=C(\N/C(=N/[H])NCCCCCCNC(=N)NC(=N)Nc1ccc(Cl)cc1)Nc1ccc(Cl)cc1 [Chlorhexidine]	60	TNTC	TNTC	TNTC	1 (2×) and 0 (3×)	5	7 and 4 and 5 and 2 and 1	1	0	0	60	TNTC	TNTC	30 and 20 and 32 and 24 and TNTC	0
CCCCC(CC)CNC(=N)NC(=N)NCCCCCCNC(=N)NC(=N)NCC(CC)CCCC (stereo not drawn) [Alexidine]	0.5 to 1	0	0	0	0	0.5 to 1	0	0	0	0	0.5 to 1	3 and 0 (4×)	0 (4×) and 1	0	0
